Data from patent US20220187282A1, “CARDIOMYOCYTE PROLIFERATION” (The Council of the Queensland Institute of Medical Research, priority 2019, published 2022).
Read-outs that look alike come from different tables or passages of the source.

How the values were obtained:
Format in all cases: biochemical
[1] = target: kinases (Homo sapiens, UniProt O00311); details: CDC7/DBF4 FRET-Lantha SP; Test Conc(μM) 1
[2] = target: kinases (Homo sapiens, UniProt O60674)
[3] = target: kinases (Homo sapiens, UniProt P00533); details: EGFR (ErbB1) *Mn* Z-Lyte SP; Test Conc(μM):ATP Conc(μM) 1:10
[4] = target: kinases (Homo sapiens, UniProt P08069); details: IGF1R FRET-Z-Lyte SP; Test Conc(μM):ATP Conc(μM) 1:150
[5] = target: kinases (Homo sapiens, UniProt P15056)
[6] = target: kinases (Homo sapiens, UniProt P30291); details: WEE1 FRET-Lantha SP; Test Conc(μM) 1
[7] = target: kinases (Homo sapiens, UniProt P31751); details: AKT2 (PKB beta) FRET-Z-Lyte SP; Test Conc(μM):ATP Conc(μM) 1:200
[8] = target: kinases (Homo sapiens, UniProt P35626); details: ADRBK2 (GRK3) FRET-Z-Lyte SP; Test Conc(μM):ATP Conc(μM) 1:10
[9] = target: kinases (Homo sapiens, UniProt P42356); details: PI4KA FRET-Adapta SP; Test Conc(μM):ATP Conc(μM) 1:10
[10] = target: kinases (Homo sapiens, UniProt P43403); details: ZAP70 *Mn* FRET-Z-Lyte SP; Test Conc(μM):ATP Conc(μM) 1:5
[11] = target: kinases (Homo sapiens, UniProt P48730); details: CSNK1D (CK1 delta) Z-Lyte SP; Test Conc(μM):ATP Conc(μM) 1:5
[12] = target: kinases (Homo sapiens, UniProt P51817); details: PRKX FRET-Z-Lyte SP; Test Conc(μM):ATP Conc(μM) 1:10
[13] = target: kinases (Homo sapiens, UniProt P53350); details: PLK1 FRET-Z-Lyte SP; Test Conc(μM):ATP Conc(μM) 1:10
[14] = target: kinases (Homo sapiens, UniProt P78368); details: CSNK1G2 (CK1gamma2) Z-Lyte SP; Test Conc(μM):ATP Conc(μM) 1:5
[15] = target: kinases (Homo sapiens, UniProt Q06187); details: BTK FRET-Z-Lyte SP; Test Conc(μM):ATP Conc(μM) 1:25
[16] = target: kinases (Homo sapiens, UniProt Q06418); details: TYRO3 (RSE) FRET-Z-Lyte SP; Test Conc(μM):ATP Conc(μM) 1:25
[17] = target: kinases (Homo sapiens, UniProt Q07912); details: TNK2 (ACK) FRET-Lantha SP; Test Conc(μM) 1
[18] = target: kinases (Homo sapiens, UniProt Q08345); details: DDR1 FRET-Lantha SP; Test Conc(μM) 1
[19] = target: kinases (Homo sapiens, UniProt Q12866); details: MERTK (cMER) *Mn* Z-Lyte SP; Test Conc(μM):ATP Conc(μM) 1:10
[20] = target: kinases (Homo sapiens, UniProt Q13164); details: MAPK7 (ERK5) FRET-Z-Lyte SP; Test Conc(μM):ATP Conc(μM) 1:10
[21] = target: kinases (Homo sapiens, UniProt Q13177); details: PAK2 (PAK65) FRET-Z-Lyte SP; Test Conc(μM):ATP Conc(μM) 1:75
[22] = target: kinases (Homo sapiens, UniProt Q13237); details: PRKG2 (PKG2) FRET-Z-Lyte SP; Test Conc(μM):ATP Conc(μM) 1:150
[23] = target: kinases (Homo sapiens, UniProt Q16584); details: MAP3K11 (MLK3) FRET-Lantha SP; Test Conc(μM) 1
[24] = target: kinases (Homo sapiens, UniProt Q16816); details: PHKG1 FRET-Z-Lyte SP; Test Conc(μM):ATP Conc(μM) 1:75
[25] = target: kinases (Homo sapiens, UniProt Q86SG6); details: NEK8 FRET-Lantha SP; Test Conc(μM) 1
[26] = target: kinases (Homo sapiens, UniProt Q9BYT3); details: STK33 FRET-Lantha SP; Test Conc(μM) 1
[27] = target: kinases (Homo sapiens, UniProt Q9H2K8); details: TAOK3 (JIK) FRET-Lantha SP; Test Conc(μM) 1
[28] = target: kinases (Homo sapiens, UniProt Q9Y6M4); details: CSNK1G3 (CK1gamma3) Z-Lyte SP; Test Conc(μM):ATP Conc(μM) 1:5
[29] = JAK2 FRET-Z-Lyte SP, Test Conc(μM):ATP Conc(μM) 1:25
[30] = bRAF Cascade FRET-Z-Lyte SP, Test Conc(μM):ATP Conc(μM) 1:100
[31] = bRAF FRET-Lantha SP, Test Conc(μM) 1

kinases (Homo sapiens, UniProt P15056), sequence (P15056 whole entry): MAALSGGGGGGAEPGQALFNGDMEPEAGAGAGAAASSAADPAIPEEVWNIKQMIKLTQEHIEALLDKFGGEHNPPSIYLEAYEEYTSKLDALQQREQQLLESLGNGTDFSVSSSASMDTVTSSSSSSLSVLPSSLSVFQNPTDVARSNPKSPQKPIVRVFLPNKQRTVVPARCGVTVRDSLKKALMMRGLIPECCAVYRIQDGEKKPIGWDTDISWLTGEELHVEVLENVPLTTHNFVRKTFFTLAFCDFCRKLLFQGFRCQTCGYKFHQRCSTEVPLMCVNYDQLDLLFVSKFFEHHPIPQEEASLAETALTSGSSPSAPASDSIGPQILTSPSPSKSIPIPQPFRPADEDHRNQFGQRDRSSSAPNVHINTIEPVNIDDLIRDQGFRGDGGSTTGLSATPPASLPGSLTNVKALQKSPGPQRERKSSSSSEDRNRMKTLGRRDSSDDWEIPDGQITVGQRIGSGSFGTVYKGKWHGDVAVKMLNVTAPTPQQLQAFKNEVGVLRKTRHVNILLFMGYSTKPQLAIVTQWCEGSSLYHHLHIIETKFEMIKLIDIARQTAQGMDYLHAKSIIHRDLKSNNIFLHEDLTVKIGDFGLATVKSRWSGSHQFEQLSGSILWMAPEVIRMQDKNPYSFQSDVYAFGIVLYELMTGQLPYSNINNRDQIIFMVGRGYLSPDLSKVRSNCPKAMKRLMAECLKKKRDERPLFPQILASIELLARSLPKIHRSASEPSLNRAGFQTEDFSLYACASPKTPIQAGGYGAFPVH
kinases (Homo sapiens, UniProt O60674), sequence (O60674 whole entry): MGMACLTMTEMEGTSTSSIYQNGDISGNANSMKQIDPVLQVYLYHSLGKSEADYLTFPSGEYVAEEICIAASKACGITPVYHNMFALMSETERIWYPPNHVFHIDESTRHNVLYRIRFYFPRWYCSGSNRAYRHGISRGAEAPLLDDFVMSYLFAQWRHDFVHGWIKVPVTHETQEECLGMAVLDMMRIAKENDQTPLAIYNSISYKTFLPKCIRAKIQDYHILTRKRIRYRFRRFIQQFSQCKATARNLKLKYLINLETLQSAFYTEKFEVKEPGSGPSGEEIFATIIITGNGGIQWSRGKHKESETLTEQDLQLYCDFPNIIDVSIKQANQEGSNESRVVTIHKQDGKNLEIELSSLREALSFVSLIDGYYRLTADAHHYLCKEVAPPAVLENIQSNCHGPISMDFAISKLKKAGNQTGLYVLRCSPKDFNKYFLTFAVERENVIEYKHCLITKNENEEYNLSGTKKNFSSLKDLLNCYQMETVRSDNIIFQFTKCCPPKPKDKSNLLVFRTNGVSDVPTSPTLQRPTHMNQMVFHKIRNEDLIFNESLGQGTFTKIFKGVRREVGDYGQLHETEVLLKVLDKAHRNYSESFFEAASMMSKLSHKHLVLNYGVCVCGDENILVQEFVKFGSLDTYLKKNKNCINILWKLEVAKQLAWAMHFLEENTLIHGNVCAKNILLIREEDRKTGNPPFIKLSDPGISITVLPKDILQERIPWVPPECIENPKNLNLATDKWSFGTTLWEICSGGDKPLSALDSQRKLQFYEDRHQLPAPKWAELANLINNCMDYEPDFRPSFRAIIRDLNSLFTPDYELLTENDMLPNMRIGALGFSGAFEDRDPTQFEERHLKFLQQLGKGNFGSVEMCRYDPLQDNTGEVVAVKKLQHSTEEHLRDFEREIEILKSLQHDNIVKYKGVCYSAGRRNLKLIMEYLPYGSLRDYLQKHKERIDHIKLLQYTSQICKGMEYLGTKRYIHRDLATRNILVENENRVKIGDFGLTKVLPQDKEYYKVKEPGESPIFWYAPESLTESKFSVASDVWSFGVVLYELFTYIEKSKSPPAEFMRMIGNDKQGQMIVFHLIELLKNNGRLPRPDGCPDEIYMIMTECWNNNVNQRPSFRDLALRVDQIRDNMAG
kinases (Homo sapiens, UniProt Q16816), sequence (Q16816 whole entry): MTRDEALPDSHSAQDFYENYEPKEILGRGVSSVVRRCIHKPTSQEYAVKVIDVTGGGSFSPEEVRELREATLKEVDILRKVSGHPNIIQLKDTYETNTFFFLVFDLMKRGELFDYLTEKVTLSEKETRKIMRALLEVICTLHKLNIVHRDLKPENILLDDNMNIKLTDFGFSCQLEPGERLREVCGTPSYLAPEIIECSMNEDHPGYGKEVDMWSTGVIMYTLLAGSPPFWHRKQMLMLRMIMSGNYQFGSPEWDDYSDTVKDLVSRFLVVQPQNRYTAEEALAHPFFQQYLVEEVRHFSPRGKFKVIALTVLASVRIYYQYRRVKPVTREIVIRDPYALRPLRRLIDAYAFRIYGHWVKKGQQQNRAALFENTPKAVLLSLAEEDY
kinases (Homo sapiens, UniProt Q08345), sequence (Q08345 19-913): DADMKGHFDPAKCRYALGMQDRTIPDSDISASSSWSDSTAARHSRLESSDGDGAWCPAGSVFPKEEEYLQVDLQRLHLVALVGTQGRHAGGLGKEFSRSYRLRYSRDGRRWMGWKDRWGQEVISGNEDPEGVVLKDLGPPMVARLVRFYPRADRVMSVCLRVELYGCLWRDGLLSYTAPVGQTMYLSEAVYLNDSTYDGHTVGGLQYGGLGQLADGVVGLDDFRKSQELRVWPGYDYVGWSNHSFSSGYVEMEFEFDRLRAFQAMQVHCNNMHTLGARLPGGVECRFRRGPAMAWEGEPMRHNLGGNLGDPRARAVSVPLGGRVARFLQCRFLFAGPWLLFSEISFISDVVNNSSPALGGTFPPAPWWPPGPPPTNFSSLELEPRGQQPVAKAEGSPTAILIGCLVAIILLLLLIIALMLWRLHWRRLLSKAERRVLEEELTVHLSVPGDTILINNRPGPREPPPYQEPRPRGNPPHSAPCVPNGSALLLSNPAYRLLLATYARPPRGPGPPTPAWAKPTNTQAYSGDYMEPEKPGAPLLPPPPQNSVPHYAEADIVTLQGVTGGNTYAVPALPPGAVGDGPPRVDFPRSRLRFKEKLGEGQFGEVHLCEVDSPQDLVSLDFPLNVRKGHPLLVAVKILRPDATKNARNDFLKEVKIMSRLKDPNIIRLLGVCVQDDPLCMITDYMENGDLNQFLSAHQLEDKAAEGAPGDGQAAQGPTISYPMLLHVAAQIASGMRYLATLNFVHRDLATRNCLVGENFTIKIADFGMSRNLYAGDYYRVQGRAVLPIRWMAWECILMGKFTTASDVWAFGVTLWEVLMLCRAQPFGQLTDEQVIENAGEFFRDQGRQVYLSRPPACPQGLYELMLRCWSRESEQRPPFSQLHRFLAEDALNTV
kinases (Homo sapiens, UniProt Q16584), sequence (Q16584 whole entry): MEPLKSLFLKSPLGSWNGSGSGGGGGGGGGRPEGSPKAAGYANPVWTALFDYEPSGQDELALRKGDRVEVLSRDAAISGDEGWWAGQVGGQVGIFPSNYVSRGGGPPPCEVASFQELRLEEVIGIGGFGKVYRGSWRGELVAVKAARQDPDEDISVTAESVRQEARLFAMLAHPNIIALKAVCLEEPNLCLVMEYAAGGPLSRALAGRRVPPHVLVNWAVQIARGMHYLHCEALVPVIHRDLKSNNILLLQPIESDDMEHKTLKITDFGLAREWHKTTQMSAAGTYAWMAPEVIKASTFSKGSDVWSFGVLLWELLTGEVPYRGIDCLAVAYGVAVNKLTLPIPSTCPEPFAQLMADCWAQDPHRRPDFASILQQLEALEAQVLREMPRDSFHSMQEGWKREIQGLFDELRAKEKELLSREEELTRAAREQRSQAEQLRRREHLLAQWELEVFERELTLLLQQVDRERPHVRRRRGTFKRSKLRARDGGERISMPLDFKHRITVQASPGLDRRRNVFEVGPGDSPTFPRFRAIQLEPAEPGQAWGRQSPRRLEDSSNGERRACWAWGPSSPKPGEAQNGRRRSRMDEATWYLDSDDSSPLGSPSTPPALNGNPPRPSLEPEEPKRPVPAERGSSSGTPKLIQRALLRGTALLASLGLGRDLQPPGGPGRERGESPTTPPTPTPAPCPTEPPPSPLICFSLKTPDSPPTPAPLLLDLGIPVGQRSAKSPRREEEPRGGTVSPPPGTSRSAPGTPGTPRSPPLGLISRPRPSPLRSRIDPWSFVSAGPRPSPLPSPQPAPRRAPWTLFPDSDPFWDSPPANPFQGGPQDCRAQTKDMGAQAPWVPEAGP
kinases (Homo sapiens, UniProt Q13177), sequence (Q13177 whole entry): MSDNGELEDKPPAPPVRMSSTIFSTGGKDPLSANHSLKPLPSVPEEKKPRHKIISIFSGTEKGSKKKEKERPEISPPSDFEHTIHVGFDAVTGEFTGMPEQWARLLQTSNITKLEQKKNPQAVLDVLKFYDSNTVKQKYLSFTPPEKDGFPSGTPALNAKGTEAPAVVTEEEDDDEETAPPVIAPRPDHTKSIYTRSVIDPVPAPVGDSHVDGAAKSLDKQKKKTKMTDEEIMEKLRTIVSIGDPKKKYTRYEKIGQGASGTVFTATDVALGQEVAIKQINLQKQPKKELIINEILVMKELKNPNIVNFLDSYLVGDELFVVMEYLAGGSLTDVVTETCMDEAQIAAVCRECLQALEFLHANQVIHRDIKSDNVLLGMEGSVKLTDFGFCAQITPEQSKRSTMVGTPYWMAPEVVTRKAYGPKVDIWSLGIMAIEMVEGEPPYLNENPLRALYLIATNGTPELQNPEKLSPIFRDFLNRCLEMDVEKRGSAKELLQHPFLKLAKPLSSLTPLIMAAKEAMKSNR
kinases (Homo sapiens, UniProt P51817), sequence (P51817 whole entry): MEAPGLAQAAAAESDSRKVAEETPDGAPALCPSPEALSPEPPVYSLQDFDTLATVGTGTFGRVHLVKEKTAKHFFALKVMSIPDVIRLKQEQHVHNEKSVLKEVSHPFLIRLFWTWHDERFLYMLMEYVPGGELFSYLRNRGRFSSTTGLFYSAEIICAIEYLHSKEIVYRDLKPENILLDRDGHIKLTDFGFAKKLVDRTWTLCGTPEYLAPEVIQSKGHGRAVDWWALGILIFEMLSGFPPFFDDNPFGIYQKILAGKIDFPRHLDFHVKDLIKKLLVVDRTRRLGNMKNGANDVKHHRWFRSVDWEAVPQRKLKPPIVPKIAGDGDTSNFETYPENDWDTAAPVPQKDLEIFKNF

Compound | Mean Inhib (%) [1] [%] | Mean Inhib (%) [2, 29] [%] | Mean Inhib (%) [3] [%] | Mean Inhib (%) [4] [%] | Mean Inhib (%) [5, 30] [%] | Mean Inhib (%) [5, 31] [%] | Mean Inhib (%) [6] [%] | Mean Inhib (%) [7] [%] | Mean Inhib (%) [8] [%] | Mean Inhib (%) [9] [%] | Mean Inhib (%) [10] [%] | Mean Inhib (%) [11] [%] | Mean Inhib (%) [12] [%] | Mean Inhib (%) [13] [%] | Mean Inhib (%) [14] [%] | Mean Inhib (%) [15] [%] | Mean Inhib (%) [16] [%] | Mean Inhib (%) [17] [%] | Mean Inhib (%) [18] [%] | Mean Inhib (%) [19] [%] | other results
Cc1ccc(NC(=O)c2ccnc(N3CCOCC3)c2)cc1Nc1ccnc(N2CC(C)OC(C)C2)n1 (stereo not drawn) [compound 3] | 4.9 | −7.7 | 1.5 | 11.6 | 10.3 | 66.8 | 4.6 | 8.0 | 0.7 | 4.3 | 8.1 | 1.2 | −3.2 | 3.0 | 3.9 | 6.7 | 9.3 | 0.2 | 82.4 | 13.1 | Mean Inhib (%) ([2]; JAK2 JH1 JH2 FRET-Z-Lyte SP, ATP Conc(μM):Test Conc(μM) 1:25): −0.1%; Mean Inhib (%) [20]: 0.2%; Mean Inhib (%) [21]: 14.5%; Mean Inhib (%) [22]: 2.4%; Mean Inhib (%) [23]: −0.7%; Mean Inhib (%) [24]: −3.8%; Mean Inhib (%) [25]: −9.5%; Mean Inhib (%) [26]: 1.7%; Mean Inhib (%) [27]: 0.3%; Mean Inhib (%) [28]: 2.9%
Cc1cc(Oc2ccnc(Nc3ccc(S(N)(=O)=O)cc3)c2)c(-c2ccccn2)nc1C [compound 65] | 0.9 | 4.7 | −1.9 | 6.5 | 16.7 | 10.4 | 1.2 | 2.3 | −2.5 | −6.0 | 0.0 | 1.9 | 1.8 | 9.6 | 5.9 | 29.9 | 1.4 | 6.5 | 1.7 | 7.3 | Mean Inhib (%) ([2]; JAK2 JH1 JH2 FRET-Z-Lyte SP, ATP Conc(μM):Test Conc(μM) 1:50): −3.9%; Mean Inhib (%) [20]: 6.6%; Mean Inhib (%) [21]: 12.5%; Mean Inhib (%) [22]: 0.2%; Mean Inhib (%) [23]: −0.8%; Mean Inhib (%) [24]: −6.4%; Mean Inhib (%) [25]: −7.5%; Mean Inhib (%) [26]: −6.6%; Mean Inhib (%) [27]: 1.7%; Mean Inhib (%) [28]: 0.1%
